In assay [1] the test system is Prenatally valproate-treated rats. The experiment in a line: Prenatal valproate model of ASD, social memory recognition paradigm. Format: in vivo, rat. The note with it: VPA rats; for social memory recognition active novelty contact time: mean ± S.E.M.; for social memory recognition % effect: VEH/VEH = 100%, VPA/VEH = 0%. The protocol:
(§1) The Prenatal Valproate Model of Autism Spectrum Disorder (ASD) in Rats
(§2) The prenatal valproate model has excellent construct and face validity, thus it is a widely accepted animal model of ASD (Christensen et al, JAMA 2013, 309:1696-1703; Roullet et al, Neurotoxicol Teratol. 2013, 36:45-56). In this model, time-mated female Wistar rats (Harlan, UK) were treated with single-dose of valproic acid (VPA, i.p. 600 mg/kg) on 12.5 days of pregnancy. After birth and separation, the examined male offsprings were kept under standard laboratory conditions until completion of the studies. Four animals were kept together in standard cages at 22-24° C. external temperature and in 12-12 hour light-dark cycle (07.30 a.m.-07.30 p.m.). Food and water were available ad libitum. After once daily treatment with the test substance for 7 days and pretreatment on the day of measurement, the behaviour of the rats was assessed in the social preference test on the 59th or 60th postnatal day. The social preference test is a largely accepted test method for determining the autistic behaviour of rodents (Nadler et al, Genes Brain Behav 2004, 3:303-314; Bambini-Junior et al, Brain Res 2011, 1408:8-16). The test consists of two paradigms, the first is the social approach avoidance test. In this paradigm the social behaviour of examined animals can be determined with a special three-chamber apparatus. In the apparatus, the contact behaviour of the conspecific and empty separated area surrounded with a perforated wall can be examined and compared. […] One day later, on the 60th postnatal day, rats were tested in the social memory and recognition paradigm. In this, the contact behaviour with a new, previously unknown conspecific can be measured compared to a familiar conspecific.
Unexpectedly, the treatment reversed the value of VPA/VEH to the value of VEH/VEH treated animals.

For assay [2] the test system is unchanged. The experiment in a line: Prenatal valproate model of ASD, social approach avoidance paradigm. Format: in vivo, rat. The note with it: VPA rats; for social approach avoidance active contact time: mean ± S.E.M.; for social approach avoidance % effect: VEH/VEH = 100%, VPA/VEH = 0%. The protocol: as §1, §2
The target in assay [3] is mouse V1a receptor (Mus musculus, UniProt Q62463). As to the kind of experiment: Functional V1a in vivo test: inhibition of oxytocin-induced scratching behaviour. As to conditions: mice. The protocol: Functional V1a In Vivo Test
mouse V1a receptor, sequence (Q62463 whole entry): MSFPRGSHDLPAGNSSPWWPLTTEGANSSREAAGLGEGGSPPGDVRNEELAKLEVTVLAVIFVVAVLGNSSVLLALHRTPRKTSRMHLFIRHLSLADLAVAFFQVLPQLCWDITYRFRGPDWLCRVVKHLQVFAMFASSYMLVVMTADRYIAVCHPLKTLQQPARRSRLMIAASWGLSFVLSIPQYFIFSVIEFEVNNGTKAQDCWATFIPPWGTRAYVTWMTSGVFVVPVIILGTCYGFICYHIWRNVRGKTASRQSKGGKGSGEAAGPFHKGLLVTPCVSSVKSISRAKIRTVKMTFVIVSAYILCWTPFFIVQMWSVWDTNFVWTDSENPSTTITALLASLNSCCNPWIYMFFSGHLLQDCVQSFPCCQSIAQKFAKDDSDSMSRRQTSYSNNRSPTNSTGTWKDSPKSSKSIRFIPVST
Male mice (NMRI, ToxiCoop) weighing 18-40 g were used. Animals were kept at least 5 days after delivery, during housing and measurements they were fed and drink ad libitum. The experiments were permitted by the Local Animal Protection Committee and carried out in accordance with the European Animal Protection Directives (EU Directive 2010/63/EU).
Animal behaviour was measured by an automated behavioral analysis system (LABORAS™). The sensors located below platforms detect the mechanical vibration generated by the movement of animal, and transform into an electrical signal (Quinn et al., J Neurosci Methods 2003, 130:83-92). After analyzing signals, the system analyzes the time spent with the following behavioral parameters: locomotion, immobility, climbing, grooming. The grooming algorithm by definition is able to measure the scratching behavioral response. During the experiment, mice were pretreated with the test substance or vehicle, and after the pretreatment period scratching-inducing compound (s.c. 0.3 mg/kg oxytocin) was administered, and then the animals were individually placed into measuring cages. […] To reduce the exploratory activity, the animals were measured after a 1-hour habituation to the cage. The behavioural parameters were compared to the parallel measured parameters of the control animals.
The behavioural inhibitory effect of the substances was calculated with average values of parallel measured vehicle treated groups and presented as the percentage of inhibition: 0% was expressed as average value of scratching behaviour of vehicle pretreated animals (and phys. saline s.c. pretreated with vehicle), while 100% was expressed as average value of scratching of vehicle pretreated animals that received oxytocin subcutaneously. For statistical analysis one-way analysis of variance (ANOVA) with Tukey post hoc test were used.

Assay [4] has as its target mouse vasopressin V1a receptor (Mus musculus, UniProt Q62463). The experiment in a line: Mouse vasopressin V1a receptor binding assay. As to conditions: 1321N1 cell membranes; read-out: Ki (nM) on mV1a cell line. The text has this:
Mouse Vasopressin V1a Receptor Binding Assay Cells and Radioligand
The immortalized 1321N1 cell line (B9/1321N1 clone) constitutively and stably expressing Mouse vasopressin V1a receptor vasopressin (8-L-Arginine), [Phenylalanyl-3,4,5-^3H(N)] labelled compound (Perkin Elmer Life and Analytical Sciences) as radioligand were used to determine the affinity of the prepared compounds.
Membrane-preparation: Membrane preparation of immortalized 1321N1 cells expressing the propagated mouse Vasopressin V1a receptor was made according to Jarvis's method (Jarvis et al., J Pharmacol Exp Ther […], 310:407-16). Cells were suspended in preparative buffer (50 mM Tris, 1 mM EDTA, 0.1 mM PMSF) and homogenized with glass homogenizing potter. To separate the raw membrane fraction two consecutive centrifugation procedures (40,000 g for 25 minutes at 4° C.) were executed, then the membrane was taken into the preparatory buffer during a final washing step, it was divided into aliquots which were stored at −80° C. until the time of measurement.
The protein content of the prepared membrane was determined according to Lowry's method using standard dilution line of bovine serum albumin (BSA) (Lowry et al., J Biol Chem 1951, 193:265-75).
(§3) To determine the final affinity value, the results of at least two independent experiments were taken into account.
Non-specific binding values were determined in the presence of an unlabeled 1.2×10^−6 M (Arg^8)-vasopressin. Samples were incubated in a total volume of 0.33 ml for 60 minutes at 27° C. Membrane-bound and free ligands were separated by filtration through a 0.5% polyethyleneimine-impregnated UniFilter® GF/B™ After drying the filter plates, 40 μl Microscint-20 (Packard) scintillation cocktail was added to the samples. Finally, radioactivity was measured using MicroBeta^2 Microplate Counter (Perkin Elmer).
The radioligand clamping ability of a substance is determined in at least two independent experiments. Specific radioligand binding can be defined as the difference between total and non-specific binding in the presence of a saturation amount of the unlabeled ligand or different concentrations of the substance to be tested. The results are given as a percentage of inhibition of the specific binding achieved in the presence of the substance to be tested.
The IC50 data (i.e. the concentration of the unknown substance which displaces 50% of specific bound radioligand) is calculated from the concentration-displacement curve using the sigmoid fitting mathematical method y=(A1−A2)/(1+(x/x0)p)+A2 with Origin 7.5. software (OriginLab Corporation, Northampton, USA). During fitting, the asymptotes are not fixed. The Ki values (inhibition constant) are given with Cheng-Prusoff equation Ki=IC50/[1+(L/KD)] wherein [L] is the radioligand concentration used in the experiment and [KD] is the affinity of the radioactively labelled ligand for the given receptor. The KD is determined beforehand using the Scatchard curve.

In assay [5] the target is T1, human vasopressin V1a receptor (Homo sapiens, UniProt P37288). The experiment in a line: Human vasopressin V1a receptor binding assay. The note with it: 1321N1 cell membranes, [3H]vasopressin; read-out: Ki (nM) on hV1a cell line. Put shortly:
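Radioligand competition on membranes from cells expressing human V1a receptor; incubation 60 minutes at 27° C., non-specific binding with 1.2×10^−6 M unlabeled (Arg^8)-vasopressin, filtration separation. Ki by Cheng-Prusoff using Scatchard-derived KD, from at least two independent experiments.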

Assay [6] deals with T1, human vasopressin V1a receptor. As to the kind of experiment: Functional assay on human vasopressin V1a receptor expressing cell line (intracellular Ca2+ fluorescence). The note with it: 1321N1 cells, (Arg8)-vasopressin at EC80; read-out: IC50 (nM) on hV1a cell line. The class given is cell-based.
The target in assay [7] is V1aR (Homo sapiens, UniProt P37288). As to conditions: cited from earlier work.
V1aR, sequence (P37288 whole entry, species assumed): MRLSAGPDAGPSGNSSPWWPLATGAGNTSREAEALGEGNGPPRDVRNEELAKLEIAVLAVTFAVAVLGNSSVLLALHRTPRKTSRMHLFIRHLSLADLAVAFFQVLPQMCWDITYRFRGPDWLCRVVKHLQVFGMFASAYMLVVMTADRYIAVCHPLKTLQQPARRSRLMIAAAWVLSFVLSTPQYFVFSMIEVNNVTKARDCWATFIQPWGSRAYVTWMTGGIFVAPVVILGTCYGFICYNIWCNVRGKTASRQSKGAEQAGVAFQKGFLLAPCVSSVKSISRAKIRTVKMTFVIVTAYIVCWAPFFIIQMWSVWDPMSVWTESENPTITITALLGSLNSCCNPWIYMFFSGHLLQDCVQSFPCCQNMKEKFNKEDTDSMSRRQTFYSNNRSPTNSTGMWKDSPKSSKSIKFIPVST
Assay [8] has as its target human vasopressin V2 receptor (Homo sapiens, UniProt P30518). As to the kind of experiment: Human vasopressin V2 receptor binding assay on 1321N1 cell line. As to conditions: 1321N1 cell line; read-out: Ki on hV2 1321N1 cell line. The protocol:
Human Vasopressin V2 Receptor Binding Assay Cells and Radioligand
as §3
Non-specific binding values were determined in the presence of an unlabeled 1.2×10^−6 M (Arg^8)-vasopressin. Samples were incubated in a total volume of 0.55 ml for 90 minutes at 27° C. Membrane-bound and free ligands were separated by filtration through a 0.5% polyethyleneimine-impregnated UniFilter® GF/B™. After drying the filter plates, 40 μl Microscint-20 (Packard) scintillation cocktail was added to the samples. Finally, radioactivity was measured using MicroBeta^2 Microplate Counter (Perkin Elmer).
The radioligand displacement ability of a substance is determined in at least two independent experiments. Specific radioligand binding can be defined as the difference between total and non-specific binding in the presence of a saturation amount of the unlabeled ligand or different concentrations of the substance to be tested. The results are given as a percentage of inhibition of the specific binding achieved in the presence of the substance to be tested.
During fitting, the asymptotes are not fixed. The Ki values (inhibition constant) are given with Cheng-Prusoff equation Ki=IC50/[1+(L/KD)] wherein [L] is the radioligand concentration used in the experiment and [KD] is the affinity of the radioactively labelled ligand for the given receptor. The KD is determined beforehand using the Scatchard curve.

[9] abbreviates: after i.p. treatment (table title: 10 mg/kg).

Marks after values point to notes of the source that are not given here.

mouse vasopressin V1a receptor, sequence (Q62463 whole entry): as the sequence (Q62463 whole entry) above
T1 sequence (P37288 whole entry): as the sequence (P37288 whole entry, species assumed) above
human vasopressin V2 receptor, sequence (P30518 whole entry): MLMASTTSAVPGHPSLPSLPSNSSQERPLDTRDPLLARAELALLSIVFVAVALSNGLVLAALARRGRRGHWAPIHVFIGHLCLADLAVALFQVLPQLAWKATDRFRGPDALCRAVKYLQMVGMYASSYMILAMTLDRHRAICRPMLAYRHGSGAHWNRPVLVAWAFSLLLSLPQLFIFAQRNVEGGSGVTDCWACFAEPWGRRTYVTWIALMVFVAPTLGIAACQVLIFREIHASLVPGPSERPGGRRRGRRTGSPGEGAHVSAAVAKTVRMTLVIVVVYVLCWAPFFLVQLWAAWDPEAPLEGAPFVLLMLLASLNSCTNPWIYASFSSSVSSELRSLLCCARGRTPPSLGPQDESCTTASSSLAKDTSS

For `O=C(CCCCCCC(=O)Nc1ccccc1)NO` [SAHA, suberoil anilide, reference compound], in assay [1] (5 mg/kg i.p.), the “social memory recognition active novelty contact time” value turned out to be 155.5 ± 5.8 s and the “social memory recognition % effect” value came out at 137%. For the same molecule, in assay [1] (result in words), the “active time spent with seeking response towards new animal” value is on record as “statistically significant increase”. For the same molecule, in assay [2] (5 mg/kg i.p.), the “social approach avoidance active contact time” value is 156.0 ± 6.7 s and the “social approach avoidance % effect” value is 115%. In assay [2] (result in words), the “time spent with social seeking response / social behaviour” value is listed as “statistically significant increase”.
As a reminder, the Ki is the dissociation constant of the complex between target and ligand, obtained from inhibition or displacement. Consider `Clc1ccc2c(c1)CC1(Cc3nnc([C@H]4CC[C@H](Oc5ccccn5)CC4)n3-2)OCCO1` [Example 53, 8′-chloro-1′-[trans-4-(pyridin-2-yloxy)cyclohexyl]-4′H,6′H-spiro[1,3-dioxolane-2,5′-[1,2,4]triazolo[4,3-a][1]benzazepine]], for which, in assay [3] (10 mg/kg p.o. pretreatment), the “inhibition (%) of oxytocin-induced scratching behaviour response” value (“inhibition (%)” for short) is reported as 118%. In addition, the Ki in assay [4] turned out to be 1.1 nM.
By IC50 is commonly meant the concentration that inhibits the measured activity by half. Turning to `CC(C)N[C@H]1Cc2cc(Cl)ccc2-n2c(nnc2[C@H]2CC[C@H](Oc3ccccn3)CC2)C1` [Example 25], the “inhibition (%)” value in assay [3] (setting [9]) is on record as 42* %. Further, the Ki in assay [5] amounted to 2.3 nM; in assay [4] it was 353 nM. Further, in assay [6], the IC50 is 23 nM.
As to `CN1Cc2cc(Cl)ccc2-n2c(nnc2C2CCN(c3ccccn3)CC2)C1` [PF-184563], the V1aR antagonism result in assay [7] is recorded as “efficient V1aR antagonists”.
With `CC(C)N[C@@H]1Cc2cc(Cl)ccc2-n2c(nnc2[C@H]2CC[C@H](Oc3ccccn3)CC2)C1` [Example 26], the “social memory recognition active novelty contact time” value in assay [1] (1.5 mg/kg i.p.) worked out at 83.7 ± 11.8 s; in assay [1] (5 mg/kg i.p.) it was 133.5 ± 10.0 s; in assay [1] (15 mg/kg i.p.), 141.9 ± 9.1 s. Also, the “social memory recognition % effect” value amounted to 66% in assay [1] (1.5 mg/kg i.p.), 115% in assay [1] (5 mg/kg i.p.) and 124% in assay [1] (15 mg/kg i.p.). Besides, the Ki is 0.7 nM in assay [5] and 15 nM in assay [4]. For the same molecule, the “social approach avoidance active contact time” value in assay [2] (1.5 mg/kg i.p.) was 71.2 ± 15.9 s; in assay [2] (5 mg/kg i.p.) it was 116.4 ± 22.5 s; in assay [2] (15 mg/kg i.p.) it was 148.7 ± 8.3 s. The “social approach avoidance % effect” value turned out to be 30% in assay [2] (1.5 mg/kg i.p.), 75% in assay [2] (5 mg/kg i.p.) and 107% in assay [2] (15 mg/kg i.p.). In addition, in assay [6], the IC50 came to 4.5 nM.
Consider `CC(C)NC1Cc2cc(Cl)ccc2-n2c(nnc2[C@H]2CC[C@H](Oc3ccccn3)CC2)C1` (stereo partly drawn) [Example 24, 8-chloro-N-(propan-2-yl)-1-[trans-4-(pyridin-2-yloxy)cyclohexyl]-5,6-dihydro-4H-[1,2,4]triazolo[4,3-a][1]benzazepine-5-amine], for which the “inhibition (%)” value in assay [3] (setting [9]) is 94* %. Also, the Ki amounted to 1 nM in assay [5] and 25 nM in assay [4]. Besides, in assay [6], the IC50 amounted to 7 nM.
In the case of `CN(C)S(=O)(=O)NC1Cc2cc(Cl)ccc2-n2c(nnc2[C@H]2CC[C@H](Oc3ccccn3)CC2)C1` (stereo partly drawn) [Example 20, N′-{8-chloro-1-[trans-4-(pyridin-2-yloxy)cyclohexyl]-5,6-dihydro-4H-[1,2,4]triazolo[4,3-a][1]benzazepin-5-yl}-N,N-dimethylsulfamide], the values for the Ki in assay [5] and in assay [8] were 0.7 nM and 365 nM, respectively. For the same molecule, the IC50 in assay [6] is 1 nM.
In the same order, the values of `CN(C1Cc2cc(Cl)ccc2-n2c(nnc2[C@H]2CC[C@H](Oc3ccccn3)CC2)C1)S(C)(=O)=O` (stereo partly drawn) [Example 19, N-{8-chloro-1-[trans-4-pyridin-2-loxcyclohexyl]-5,6-dihydro-4H-[1,2,4]triazolo[4,3-a][1]benzazepin-5-yl}-N-methylmethanesulfonamide] are 0.4 nM, 610 nM and 1.8 nM.
